Entries after “also recorded” stand apart in the source; their conditions may differ.
Tests used:
AA amyloid = target: T1, AA amyloid (Mus musculus, UniProt P05367); test: In vivo evaluation of radiolabeled peptides in TRIAD AA mouse model: SPECT imaging, biodistribution, autoradiography; conditions: for autoradiography: binding to AA amyloid in the necrotic renal papillae in vivo: mouse; for SPECT imaging of 125I-labeled fusion peptides in AA mice versus WT: mice with visceral AA amyloidosis
T1 construct: from tissue; host or cells: living TRIAD mice with systemic peripheral AA amyloidosis
T1 sequence (P05367 20-95 limits assumed): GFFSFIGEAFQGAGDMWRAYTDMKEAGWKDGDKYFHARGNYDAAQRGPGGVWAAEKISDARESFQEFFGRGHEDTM
Experimental: Based on the data obtained with protamines, in the Examples below, peptides that are positively charged are selected. They were labeled with radioiodine (I-125 and I-123) or technetium (Tc-99m) tested for in vivo binding to systemic AA amyloid deposits in the transgenic rapidly inducible amyloid disease (TRIAD) murine model by microSPECT or microPET imaging. The tissue biodistribution of each were assessed by gamma counting and the micro-distribution determined by autoradiography. Further, preliminary examinations were performed of the binding of biotinylated forms of these peptides with formalin-fixed, paraffin-embedded, amyloid-containing tissue sections from patients with AL κ and λ amyloidosis, Alzheimer's disease, Transthyretin amyloidsis (ATTR), serum amyloid protein A amyloidosis (AA), fibrinogen α amyloidosis (AFibα), calcifying epithelium odontogenic tumor amyloid (AODAM), galectin 7 amyloidosis (AGal), and Lect2 amyloidosis (ALECT2).
Two methods of radiolabeling the peptides were employed. For radioiodination, the direct oxidative iodination of tyrosyl groups on the peptides was employed. This method yields product with high specific activity (˜10-20 μCi/μg) of pure ^125I-labeled peptide. The second method involves radiolabeling the peptides with ^99mTc according to the method of Tran et al. (Bioconjugate Chem, 2007, 18, 549-558). The quality of each radiolabeled peptide was assessed by SDS-PAGE (15% poly-acrylamide) analyzed with quantitative phosphor imaging.
Each of the radiolabeled peptides were evaluated for its specific reactivity with amyloids in vivo, using the TRIAD AA mouse model, by using SPECT imaging, biodistribution measurements, and autoradiography. The reactivity of the radiolabeled peptides were assessed in transgenic rapidly inducible amyloid disease (TRIAD) mice with systemic peripheral AA amyloidosis as well as control (amyloid free) mice, by imaging the mice. The reactivity of the peptides were evaluated at 1 hour, 2 hours, 4 hours, 8 hours, 12 hours, or 24 hours post injection of the radiolabeled peptides. […] The other peptides also bound amyloids, but not as well as these.
In a dual-energy imaging experiment, peptide p31 was labeled with Tc^99m and SAP labeled with I^125 and the binding of each radiotracer was examined by using dual-energy microSPECT imaging in an individual TRIAD mouse with AA amyloidosis.
To examine the kinetics of the reactivity of peptides p48, p31, and p31-GGGY, dynamic PET imaging of I^124-labeled peptides p48, p31, p31-GGGY, and p50 (as a control) was performed in TRIAD mice with AA amyloidosis or wild type mice without amyloid. Finally, in a preliminary study, the binding of I^125-labeled SAP and Tc^99m-labeled peptide p31 was compared in the same TRIAD mouse with AA amyloidosis.

[1] = system: amyloid deposits in tissues from patients with light chain (AL) amyloidosis, Alzheimer's disease and other forms of amyloidosis; test: Biotinylated peptide overlay on formalin-fixed paraffin embedded patient tissues; type: binding, human; conditions: formalin-fixed paraffin embedded tissue sections
Experimental: The reactivity of biotinylated peptide p31 with amyloid deposits in formalin-fixed paraffin embedded tissues from patients with light chain (AL) amyloidosis, or Alzheimer's disease, and other forms of amyloidosis was examined.
(§1) To catalog the range of amyloids that p31 and other peptides may bind, biotinylated peptides using the biotinyl-maleimide adduct which interacts specifically with the solitary Cys residue in the “leader” sequence were prepared. The peptides were overlaid onto formalin-fixed 6 μm-thick amyloid-containing tissue sections, incubated overnight and then the distribution visualized using standard immunohistochemical techniques.

ACEOT amyloid (ODAM) = test: Biotinylated peptide overlay on amyloid-containing tissue sections; type: binding, human
Experimental: as §1

[2] = system: AFibα amyloid (Fibrinogen α); test: as above; type: binding, human
Experimental: as §1

[3] = system: ALκ amyloid (κ light chains); test: as above; type: binding, human
Experimental: as §1

[4] = system: ALλ amyloid (λ light chains); test: as above; type: binding, human; conditions: overnight incubation, 6 μm-thick sections
Experimental: as §1

[5] = system: AA amyloid (Serum amyloid protein A); test: as above; type: binding; conditions: AA (human and canine)
Experimental: as §1

[6] = target: T2, AGal amyloid (Galectin 7) (Homo sapiens, UniProt P47929); test: as above; type: binding
T2 construct: from tissue; host or cells: formalin-fixed patient tissue sections
Experimental: as §1

ALECT2 amyloid (Lectin2) = target: T3, ALECT2 amyloid (Lectin2) (Homo sapiens, UniProt O14960); test: as above; type: binding
T3 construct: from tissue; host or cells: formalin-fixed patient tissue sections
T3 sequence (O14960 19-151): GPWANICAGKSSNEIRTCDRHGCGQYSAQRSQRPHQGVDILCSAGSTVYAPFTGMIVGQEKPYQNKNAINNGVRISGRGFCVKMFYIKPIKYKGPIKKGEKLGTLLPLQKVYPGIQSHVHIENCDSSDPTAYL
Experimental: as §1

[7] = target: T4, ATTR amyloid (Transthyretin) (Homo sapiens, UniProt P02766); test: as above; type: binding
T4 construct: amyloid-containing tissue sections from patients with AL κ and λ amyloidosis, Alzheimer's disease, Transthyretin amyloidsis (ATTR); from tissue; host or cells: formalin-fixed patient tissue sections
Experimental: as §1

[8] = target: T5, Aβ amyloid (Amyloid β peptide in Alzheimer's disease) (Homo sapiens, UniProt P05067); test: as above; type: binding
T5 construct: Amyloid β peptide in Alzheimer's; from tissue; host or cells: formalin-fixed tissue sections from Alzheimer's disease patients
Experimental: as §1

[9] = system: ApoA2c amyloid-laden tissues; test: Ex vivo amyloid binding assay with homogenized tissue of ApoA2c mice; set-up: species or system mouse; conditions: for binding to ApoA2c amyloid-laden tissues in vitro: 125I-labeled, 1 h incubation, gamma counting
Experimental: (§2) The novel peptide, p5R+14, was radiolabeled with ^125I via an oxidation reaction with chloramine T. The labeled peptide was separated from free iodide using size exclusion chromatography on a Sephadex G25 column. For ex vivo amyloid binding assays, the ^125I-labeled p5 and p5R+14 peptides were added to 50 μL of homogenized tissue derived from wild type or amyloid laden ApoA2c mice. After a 1 h incubation, the amount of bound peptide (% of total) was assessed by gamma counting following centrifugation. For in vivo imaging, peptides p5 and p5R+14 were radiolabeled as above, and the radiopurities were determined by using SDS-PAGE and phosphor imaging.

ApoA2c amyloid = test: In vivo SPECT/CT imaging, biodistribution and micro-autoradiography in ApoA2c mice; set-up: species or system mouse; conditions: for SPECT/CT uptake in amyloid-laden tissues: 2 or 4 h pi; for biodistribution, tissue-to-muscle ratios, ApoA2c versus WT tissues: mouse, in vivo
Experimental: as §2
Approximately 200 μCi was injected iv in the lateral tail vein of ApoA2c mice (n=3). SPECT/CT images were acquired using the Inveon Tri-Modality System at 2 or 4 h pi. Organs were harvested and biodistribution of radiotracers was determined and recorded as % injected dose/gram. For comparisons between the peptides, tissue to muscle ratios were used. The tissues were then fixed in formalin, paraffin embedded, sectioned and exposed to photographic emulsion for ˜3 days.

AA amyloid deposits = target: T6, AA amyloid deposits (Mus musculus, UniProt P05367)
T6 sequence (P05367 20-95 limits assumed): T1 sequence (P05367 20-95 limits assumed)
Experimental: Following radioiodination, ^125I-labeled protamine (^125I-protamine) was administered to animals with severe systemic AA amyloidosis mice or to amyloid-free mice and allowed to circulate for 1 hour, 2 hours, 4 hours, 8 hours or 24 hours. At each time point high-resolution microSPECT/CT images were acquired and the tissue distribution of the radioactivity determined by gamma counting. Finally, 6 μm-thick tissue sections were prepared for autoradiography and histological evaluation of the micro-distribution of the radiolabeled peptides and amyloid deposits, respectively.

T2 sequence (P47929 whole entry): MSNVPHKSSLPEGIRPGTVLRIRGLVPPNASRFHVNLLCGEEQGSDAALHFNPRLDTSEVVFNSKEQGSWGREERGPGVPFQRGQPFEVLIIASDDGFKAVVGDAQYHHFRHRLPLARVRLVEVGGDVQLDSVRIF

CGGYSKAQKAQAKQAKQAQKAQKAQAKQAKQ (Heparin-binding peptide) [p31]
SPECT imaging of AA amyloid compared to SAP (AA amyloid; 99mTc-labeled peptide, 125I-labeled SAP, same mouse): as effective as SAP; also recorded: the same as that for SAP | SPECT distribution in AA mouse compared to WT control (AA amyloid; 125I-labeled): totally different | retention on AA amyloid in vivo (SPECT images and biodistribution) (AA amyloid; 24 h post-injection): remained bound to the AA amyloid in vivo | specific amyloid binding, ranking from in vivo imaging studies (AA amyloid; TRIAD AA mouse model, 1-24 hours post injection): best specific amyloid binding reagents | autoradiography: reactivity with murine pancreatic AA amyloid (AA amyloid; compared to SAP): greater reactivity with murine pancreatic AA amyloid as compared to SAP | biodistribution: amount of amyloid bound compared to SAP (AA amyloid; mice): binds more amyloid in vivo | autoradiography: binding to AA amyloid in the necrotic renal papillae in vivo (AA amyloid): binds AA amyloid in the necrotic renal papillae | binding of biotinylated peptide to tissue amyloid [1]: bound tissue amyloid from these patients with great affinity; also recorded: selectively bound to the amyloids in the tissue section | binding to amyloid in tissue sections (ACEOT amyloid (ODAM)): specifically binds significantly | binding to amyloid in tissue sections [2]: specifically binds significantly | binding to amyloid in tissue sections [3]: specifically binds significantly | binding to amyloid in tissue sections [4]: specifically binds significantly | binding to amyloid in tissue sections [5]: specifically binds significantly | binding to amyloid in tissue sections [6]: specifically binds significantly | binding to amyloid in tissue sections (ALECT2 amyloid (Lectin2)): specifically binds significantly | binding to amyloid in tissue sections [7]: specifically binds significantly | binding to amyloid in tissue sections [8]: specifically binds significantly

GGGYSKAQKAQAKQAKQAQKAQKAQAKQAKQ [p31-GGGY]
binding to ApoA2c amyloid-laden tissues in vitro [9]: able to bind | uptake of radiotracer in splenic amyloid in vivo (ApoA2c amyloid; ApoA2c mice): no uptake | SPECT/CT uptake in amyloid-laden tissues (ApoA2c amyloid; ApoA2c mice): lack of positive amyloid uptake | micro-autoradiography of tissues (ApoA2c amyloid; ApoA2c mice, listed as 125I-p5): only slight uptake | micro-autoradiography of tissues (ApoA2c amyloid; ApoA2c mice, listed as p5): scant amounts | biodistribution, tissue-to-muscle ratios, ApoA2c versus WT tissues (ApoA2c amyloid): not significantly higher

GGGYSRAQRAQARQARQAQRAQRAQARQARQAQRAQRAQARQARA [p31RGGGY + 14]
binding to ApoA2c amyloid-laden tissues in vitro [9]: able to bind | amount bound compared between p5R+14 and p5 ([9]; tissues of ApoA2c-amyloid mouse, listed as p5R+14): bound in greater amounts to all tissue samples as compared to p5; also recorded: higher binding in every tissue of interest | micro-autoradiography of tissues (ApoA2c amyloid; ApoA2c mice): localized to amyloid within the tissues | SPECT/CT uptake in amyloid-laden tissues (ApoA2c amyloid; ApoA2c mice, listed as 125I-p5R+14): uptake of ^125I-p5R+14 in amyloid-laden tissues such as the heart, liver, spleen and intestines; also recorded: cardiac uptake is not part of blood pool clearance | SPECT/CT uptake in amyloid-laden tissues (ApoA2c amyloid; ApoA2c mice, listed as p5R+14): bound cardiac amyloid deposits as well as those in the liver, spleen and intestines | biodistribution, tissue-to-muscle ratios, ApoA2c versus WT tissues (ApoA2c amyloid): clearly more p5R+14 binding to the diseased tissues

GGYSKAQKAQAKQAKQAQKAQKAQAKQAKQGGTFFYGGSRGKRNNFKTEEY [WAL14465]
SPECT imaging of 125I-labeled fusion peptides in AA mice versus WT (AA amyloid): retained by the amyloid deposits in the liver spleen and kidneys

RRLSYSRRRFCGGYSKAQKAQAKQA KQAQKAQKAQAKQAKQ (RRLSYSRRRFCGGYSKAQKAQAKQAKQAQKAQKAQAKQAKQ) [Syb3-p31, fusion of p31 with cell penetrating peptide]
SPECT imaging of 125I-labeled fusion peptides in AA mice versus WT (AA amyloid): retained by the amyloid deposits in the liver spleen and kidneys

SAP: Serum amyloid P component, the gold standard amyloid imaging agent; decameric, Mw ~250 kD [reference compound]
autoradiography: binding to AA amyloid in the necrotic renal papillae in vivo (AA amyloid): does not

YGRKKRRQRRRCGGYSKAQKAQAKQAKQAQKAQKAQAKQAKQ [TAT-p31, fusion of p31 with cell penetrating peptide]
SPECT imaging of 125I-labeled fusion peptides in AA mice versus WT (AA amyloid): retained by the amyloid deposits in the liver spleen and kidneys

protamine
microSPECT distribution in AA mice (AA amyloid deposits; AA mice): sequestered by amyloid deposits in the liver, kidney, pancreas and spleen | micro-autoradiography association with amyloid (AA amyloid deposits; AA mice, notably liver): preferentially associated with the AA amyloid | accumulation in organs or tissues of amyloid-free mice (AA amyloid deposits; amyloid-free mice): little or no specific accumulation | calculated tissue:muscle ratios, mice with AA versus amyloid-free mice (AA amyloid deposits; liver, kidney, pancreas, spleen, stomach, gamma counting): at least 2 fold | fate of radiolabel in control mice (AA amyloid deposits; mouse, in vivo): rapidly dehalogenated

Source: US8808666B2, “Peptides that specifically target amyloid deposits” (University of Tennessee Research Foundation, priority 2010, dated 2014)
